Legend:
Settings in all cases: incubation time: 72 h
DU-4475 [1] = test: normalised viability (% of control), CellTiter-Blue; higher = more viable cells (about 100 = DMSO control)
Procedure, shortened: (§1)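 After 72 h on compound-loaded 384-well plates, breast cancer cell lines received 2.5 µl CellTiter-Blue reagent for 2 h at 37 °C. Fluorescence at 560/590 nm was scaled per plate so that vehicle was 100 and a positive kill control was 0. The value stands for normalised viability at a single listed concentration of the series.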

BT-474 [2] = test: as above
Procedure, shortened: as §1

HCC1937 [3] = test: as above
Procedure, shortened: as §1

MDA-MB-453 [4] = test: as above
Procedure, shortened: as §1

BT-549 [5] = test: as above
Procedure, shortened: as §1

CAL-51 [6] = test: as above
Procedure, shortened: as §1

MDA-MB-231 = test: drug sensitivity score (DSS), CellTox Green (DSS (AUC-based score)); higher = stronger drug effect (viability inhibition or cytotoxicity); extreme values may be limits of the assay
Procedure, shortened: (§2)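 A drug sensitivity score was derived from the area under each fitted dose-response curve. Breast cancer cells (20 µl suspension) were seeded onto compound in 384-well plates, using 5 concentrations 10-fold apart over a compound-specific 10,000-fold range, and incubated 72 h. Readouts were CellTox Green fluorescence and then CellTiter-Glo luminescence, with every plate normalised to 0.1 % DMSO and a positive kill control.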

MFM-223 = test: as above
Procedure, shortened: as §2

CAL-85-1 = test: as above
Procedure, shortened: as §2

HCC1143 = test: as above
Procedure, shortened: as §2

MCF-10A = test: as above
Procedure, shortened: as §2

CAL-120 = test: as above
Procedure, shortened: as §2

HDQ-P1 = test: as above
Procedure, shortened: as §2

DU-4475 [7] = test: as above
Procedure, shortened: as §2

CAL-148 = test: as above
Procedure, shortened: as §2

MDA-MB-436 = test: as above
Procedure, shortened: as §2

Hs578T = test: as above
Procedure, shortened: as §2

BT-474 [8] = test: as above
Procedure, shortened: as §2

MDA-MB-468 = test: as above
Procedure, shortened: as §2

HCC1937 [9] = test: as above
Procedure, shortened: as §2

MDA-MB-453 [10] = test: as above
Procedure, shortened: as §2

BT-549 [11] = test: as above
Procedure, shortened: as §2

HCC1599 = test: as above
Procedure, shortened: as §2

CAL-51 [12] = test: as above
Procedure, shortened: as §2

COc1cccc2c1C(=O)c1c(O)c3c(c(O)c1C2=O)C[C@@](O)(C(C)=O)C[C@@H]3O[C@H]1C[C@H](N)[C@H](O)[C@H](C)O1 [Daunorubicin]
normalised viability [%]
Settings	BT-474 [2]	BT-549 [5]	CAL-51 [6]	DU-4475 [1]	HCC1937 [3]	MDA-MB-453 [4]
0.3 nM	–	–	97.1	84.7	–	110
1 nM	118	87	–	–	105	–
3 nM	–	–	92.9	86.3	–	114
10 nM	–	–	88.2	70.7	–	97
100 nM	80.3	59	–	–	34.2	–
1000 nM	17.3	11	–	–	20	–

Settings	drug sensitivity score
BT-474 [8]	0
BT-549 [11]	0
CAL-51 [12]	5.74
CAL-85-1	0
CAL-120	0
CAL-148	0
DU-4475 [7]	0
HCC1143	0
HCC1599	0
HCC1937 [9]	0
HDQ-P1	0
Hs578T	0
MCF-10A	0
MDA-MB-231	0
MDA-MB-436	1.42
MDA-MB-453 [10]	0
MDA-MB-468	4.94
MFM-223	0

CC(C)C[C@H](NC(=O)[C@H](Cc1ccccc1)NC(=O)c1cnccn1)B(O)O [Bortezomib]
normalised viability [%]
Settings	BT-474 [2]	BT-549 [5]	CAL-51 [6]	DU-4475 [1]	HCC1937 [3]	MDA-MB-453 [4]
0.3 nM	–	–	101	113	–	106
1 nM	101	99.8	–	–	83.4	–
3 nM	–	–	97.9	93.4	–	112
10 nM	–	–	97.7	98.8	–	20.9
100 nM	36.6	6.67	–	–	8.79	–
1000 nM	22.4	3.15	–	–	3.46	–

Settings	drug sensitivity score
BT-474 [8]	6.53
BT-549 [11]	6.42
CAL-51 [12]	18.7
CAL-85-1	27.8
CAL-120	13.6
CAL-148	13.5
DU-4475 [7]	2.21
HCC1143	6.67
HCC1599	0
HCC1937 [9]	21.4
HDQ-P1	20.1
Hs578T	17.3
MCF-10A	7.83
MDA-MB-231	22.4
MDA-MB-436	16.6
MDA-MB-453 [10]	2.35
MDA-MB-468	33.3
MFM-223	12.5

COc1ncc(-c2ccc3nccc(-c4ccnnc4)c3c2)cc1NS(=O)(=O)c1ccc(F)cc1F
normalised viability [%]
Settings	BT-474 [2]	BT-549 [5]	CAL-51 [6]	DU-4475 [1]	HCC1937 [3]	MDA-MB-453 [4]
0.3 nM	–	–	93.7	87.5	–	103
1 nM	110	88	–	–	94	–
3 nM	–	–	75.3	94.4	–	67.2
10 nM	–	–	56.5	82.1	–	36.7
100 nM	19.2	29.4	–	–	47.2	–
1000 nM	6.63	14.7	–	–	32.5	–

Settings	drug sensitivity score
BT-474 [8]	6.83
BT-549 [11]	0
CAL-51 [12]	6.6
CAL-85-1	0
CAL-120	0
CAL-148	6.5
DU-4475 [7]	0
HCC1143	0
HCC1599	0
HCC1937 [9]	5.84
HDQ-P1	0
Hs578T	3.92
MCF-10A	0.561
MDA-MB-231	3.08
MDA-MB-436	0
MDA-MB-453 [10]	0
MDA-MB-468	9.19
MFM-223	3.89

COC1=CC(c2cc3ccccc3[nH]2)=N/C1=C\c1[nH]c(C)cc1C [Obatoclax]
normalised viability [%]
Settings	BT-474 [2]	BT-549 [5]	CAL-51 [6]	DU-4475 [1]	HCC1937 [3]	MDA-MB-453 [4]
3 nM	–	–	107	86.3	–	101
10 nM	92.6	78.7	–	–	63	–
30 nM	–	–	101	73.7	–	77.9
100 nM	–	–	101	88.2	–	74.3
1000 nM	36.1	30.3	–	–	21.4	–
10000 nM	33.4	17.7	–	–	20	–

Settings	drug sensitivity score
BT-474 [8]	0
BT-549 [11]	0
CAL-51 [12]	6.54
CAL-85-1	0
CAL-120	0
CAL-148	0
DU-4475 [7]	0
HCC1143	0
HCC1599	0
HCC1937 [9]	0
HDQ-P1	0
Hs578T	0
MCF-10A	0
MDA-MB-231	12.7
MDA-MB-436	0
MDA-MB-453 [10]	0
MDA-MB-468	0
MFM-223	0

C[C@@]1(C(=O)Nc2ccc(F)nc2)CCCN1c1nc(Nc2cc(C3CC3)n[nH]2)c2cccn2n1
normalised viability [%]
Settings	BT-474 [2]	BT-549 [5]	CAL-51 [6]	DU-4475 [1]	HCC1937 [3]	MDA-MB-453 [4]
3 nM	–	–	99	97.3	–	100
10 nM	109	97.8	–	–	127	–
30 nM	–	–	97.4	91.7	–	84
100 nM	–	–	84.9	83.8	–	105
1000 nM	87.6	77.6	–	–	73.2	–
10000 nM	82	34.4	–	–	29.4	–

Settings	drug sensitivity score
BT-474 [8]	0
BT-549 [11]	0
CAL-51 [12]	10.5
CAL-85-1	0
CAL-120	3.17
CAL-148	2.31
DU-4475 [7]	0
HCC1143	9.05
HCC1599	0
HCC1937 [9]	0
HDQ-P1	4.62
Hs578T	0
MCF-10A	6.69
MDA-MB-231	6.52
MDA-MB-436	0
MDA-MB-453 [10]	0
MDA-MB-468	18.2
MFM-223	3.84

CCCC(CCC)C(=O)O [Valproic acid]
normalised viability [%]
Settings	BT-474 [2]	BT-549 [5]	CAL-51 [6]	DU-4475 [1]	HCC1937 [3]	MDA-MB-453 [4]
3 nM	–	–	104	88.6	–	112
10 nM	113	78.7	–	–	126	–
30 nM	–	–	95.1	81.7	–	102
100 nM	–	–	96.5	76.3	–	109
1000 nM	124	93.1	–	–	86	–
10000 nM	121	86.2	–	–	92.6	–

Settings	drug sensitivity score
BT-474 [8]	0
BT-549 [11]	0
CAL-51 [12]	0
CAL-85-1	0
CAL-120	0
CAL-148	0
DU-4475 [7]	0
HCC1143	0
HCC1599	0
HCC1937 [9]	0
HDQ-P1	0
Hs578T	0
MCF-10A	0
MDA-MB-231	0
MDA-MB-436	0
MDA-MB-453 [10]	0
MDA-MB-468	0
MFM-223	0

C[C@@H]1C=C2C(=O)O[C@@H]3CC[C@H](C1)[C@]23O [Galiellalactone]
normalised viability [%]
Settings	BT-474 [2]	BT-549 [5]	CAL-51 [6]	DU-4475 [1]	HCC1937 [3]	MDA-MB-453 [4]
15 nM	–	–	108	103	–	114
50 nM	131	83.9	–	–	132	–
150 nM	–	–	104	92.2	–	91.2
500 nM	–	–	102	95.5	–	98.4
5000 nM	98.9	59.9	–	–	79.4	–
50000 nM	27.4	7.58	–	–	22.8	–

Settings	drug sensitivity score
BT-474 [8]	0
BT-549 [11]	0
CAL-51 [12]	0
CAL-85-1	1.02
CAL-120	0
CAL-148	0
DU-4475 [7]	0
HCC1143	0
HCC1599	0
HCC1937 [9]	0
HDQ-P1	0
Hs578T	0
MCF-10A	0
MDA-MB-231	0
MDA-MB-436	0
MDA-MB-453 [10]	0
MDA-MB-468	0
MFM-223	0
